Measurements reported in ChEMBL document CHEMBL3526090, “Pharmacokinetic mechanism involved in the prolonged high retention of laninamivir in mouse respiratory tissues after intranasal administration of its prodrug laninamivir octanoate” (Drug Metab Dispos, 2013).

Legend:
Settings in all cases: in vivo, inhaled_or_intranasal; call rule not given here
[1] = Drug uptake in BALB/cAnNCrlCrlj mouse alveolar bronchiole at 0.5 umol/kg administered intranasally measured at 24 hrs by microautoradiographic analysis; assay type: ADME, BALB/cAnNCrlCr
[2] = Drug uptake in BALB/cAnNCrlCrlj mouse pulmonary alveoli at 0.5 umol/kg administered intranasally measured at 24 hrs by microautoradiographic analysis; assay type: ADME, BALB/cAnNCrlCr
[3] = Drug uptake in BALB/cAnNCrlCrlj mouse bronchial gland at 0.5 umol/kg administered intranasally measured at 24 hrs by microautoradiographic analysis; assay type: ADME, BALB/cAnNCrlCr
Blood = experiment: Drug uptake in BALB/cAnNCrlCrlj mouse pulmonary arterial blood at 0.5 umol/kg administered intranasally measured at 24 hrs by microautoradiographic analysis; assay type: ADME, tissue-based, BALB/cAnNCrlCr
[4] = Drug uptake in BALB/cAnNCrlCrlj mouse Goblet cells at 0.5 umol/kg administered intranasally measured at 24 hrs by microautoradiographic analysis; assay type: ADME, BALB/cAnNCrlCr
Lung = experiment: Drug uptake in lung of BALB/cAnNCrlCrlj mouse at 0.5 umol/kg administered intranasally measured at 0.25 hrs by microautoradiographic analysis; assay type: ADME, tissue-based, BALB/cAnNCrlCr
[5] = Drug uptake in bronchi of BALB/cAnNCrlCrlj mouse at 0.5 umol/kg administered intranasally measured at 0.25 hrs by microautoradiographic analysis; assay type: ADME, BALB/cAnNCrlCr, Bronchus
[6] = Drug uptake in BALB/cAnNCrlCrlj mouse ciliated columnar epithelial cells at 0.5 umol/kg administered intranasally measured at 24 hrs by microautoradiographic analysis; assay type: ADME, cell-based, BALB/cAnNCrlCr, Epithelial cell
[7] = Drug uptake in BALB/cAnNCrlCrlj mouse terminal bronchiole at 0.5 umol/kg administered intranasally measured at 24 hrs by microautoradiographic analysis; assay type: ADME, tissue-based, BALB/cAnNCrlCr
[8] = Drug uptake in BALB/cAnNCrlCrlj mouse cuboidal epithelial cells at 0.5 umol/kg administered intranasally measured at 24 hrs by microautoradiographic analysis; assay type: ADME, cell-based, BALB/cAnNCrlCr, Epithelial cell

Drug uptake [1]: Active
Drug uptake [2]: Active
Drug uptake [3]: Active
Drug uptake (Blood): Active
Drug uptake [4]: Active
Drug uptake (Lung): Active
Drug uptake [5]: Active
Drug uptake [6]: Active
Drug uptake [7]: Active
Drug uptake [8]: Active
SMILES: CCCCCCCC(=O)OC[C@@H](O)[C@@H](OC)[C@@H]1OC(C(=O)O)=C[C@H](N[14C](=N)N)[C@H]1NC(C)=O
